Reference: the NIST ThermoML archive (doi:10.1016/j.jct.2009.02.002)
Numbers after ± are expanded uncertainties.

Conditions: 101.33 kPa, Liquid; for viscosity: Capillary tube (Ostwald / Ubbelohde) method; for mass density: Vibrating tube method
[1] = 298.15 K, automatically measured using an Anton Paar DSA 5000 instrument
[2] = 303.15 K, automatically measured using an Anton Paar DSA 5000 instrument
[3] = 308.15 K, automatically measured using an Anton Paar DSA 5000 instrument

viscosity (298.15 K) [mPa·s]	speed of sound (298.15 K, Pulse-echo method) [m/s]	mass density (298.15 K) [kg/m3]	viscosity (303.15 K) [mPa·s]	speed of sound (303.15 K, Pulse-echo method) [m/s]	mass density (303.15 K) [kg/m3]	viscosity (308.15 K) [mPa·s]	speed of sound (308.15 K, Pulse-echo method) [m/s]	mass density (308.15 K) [kg/m3]	speed of sound [1] [m/s]	speed of sound [2] [m/s]	speed of sound [3] [m/s]	Compound
3.041 ± 0.019	1338.6 ± 0.8	770.456 ± 0.15	2.706 ± 0.017	1320 ± 0.8	766.981 ± 0.15	2.409 ± 0.015	1301.7 ± 0.8	763.52 ± 0.15	–	–	–	CCCCCCCCCCCCCCCC [hexadecane]
28.26 ± 0.14	–	805.122 ± 0.14	22.09 ± 0.11	–	801.912 ± 0.14	17.77 ± 0.09	–	798.709 ± 0.14	1381.9 ± 0.5	1364.1 ± 0.5	1346.5 ± 0.5	CC(C)CCCC(C)CCCC(C)CCCCC(C)CCCC(C)CCCC(C)C (configuration not stated) [2,6,10,15,19,23-hexamethyltetracosane]
3.404 ± 0.021	–	798.52 ± 0.14	2.695 ± 0.017	–	794.6 ± 0.14	2.188 ± 0.014	–	790.63 ± 0.15	1189.6 ± 0.5	1172.9 ± 0.5	1156.2 ± 0.5	CC(C)CO [2-methyl-1-propanol]
